Results taken from the supplement of paper PMC10307832.

Legend:
Assay in all cases: relative viability (nuclei count vs DMSO), 5 days (fraction); higher = more cells survive
Tanzisertib + Pemetrexed = compound: O[C@H]1CC[C@H](Nc2ncc3nc(Nc4c(F)cc(F)cc4F)n([C@H]4CCOC4)c3n2)CC1 [Tanzisertib] + Nc1nc2[nH]cc(CCc3ccc(C(=O)N[C@@H](CCC(=O)O)C(=O)O)cc3)c2c(=O)[nH]1 [Pemetrexed] (partner 0.2 µM)
Outline: (§1)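 Lung cancer cell lines were seeded in 1536-well plates and dosed by pin tool the next day, with either a single drug or a fixed anchor-drug dose combined with five library-drug doses (not always all listed) spaced in √10 steps. Five days later, one step fixed the cells and stained their nuclei (final 0.05% Triton X-100, 1% formaldehyde, 1 ug/ml Hoechst), and nuclei were counted on 4× images. Relative viability is the nuclei count in treated wells divided by the count in vehicle wells, and each value is the median of duplicate plates.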

Tanzisertib + Foretinib = compound: O[C@H]1CC[C@H](Nc2ncc3nc(Nc4c(F)cc(F)cc4F)n([C@H]4CCOC4)c3n2)CC1 [Tanzisertib] + COc1cc2c(Oc3ccc(NC(=O)C4(C(=O)Nc5ccc(F)cc5)CC4)cc3F)ccnc2cc1OCCCN1CCOCC1 [Foretinib] (partner 0.25 µM)
Outline: as §1

Tanzisertib + Dasatinib = compound: O[C@H]1CC[C@H](Nc2ncc3nc(Nc4c(F)cc(F)cc4F)n([C@H]4CCOC4)c3n2)CC1 [Tanzisertib] + Cc1nc(Nc2ncc(C(=O)Nc3c(C)cccc3Cl)s2)cc(N2CCN(CCO)CC2)n1 [Dasatinib] (partner 0.075 µM)
Outline: as §1

Tanzisertib + Navitoclax = compound: O[C@H]1CC[C@H](Nc2ncc3nc(Nc4c(F)cc(F)cc4F)n([C@H]4CCOC4)c3n2)CC1 [Tanzisertib] + CC1(C)CCC(c2ccc(Cl)cc2)=C(CN2CCN(c3ccc(C(=O)NS(=O)(=O)c4ccc(N[C@H](CCN5CCOCC5)CSc5ccccc5)c(S(=O)(=O)C(F)(F)F)c4)cc3)CC2)C1 [Navitoclax] (partner 0.5 µM)
Outline: as §1

Cell Line	relative viability (Tanzisertib + Pemetrexed; first compound 0.08 µM)	relative viability (Tanzisertib + Pemetrexed; first compound 0.253 µM)	relative viability (Tanzisertib + Pemetrexed; first compound 0.8 µM)	relative viability (Tanzisertib + Pemetrexed; first compound 2.53 µM)	relative viability (Tanzisertib + Pemetrexed; first compound 8 µM)	relative viability (Tanzisertib + Foretinib; first compound 0.08 µM)	relative viability (Tanzisertib + Foretinib; first compound 0.253 µM)	relative viability (Tanzisertib + Foretinib; first compound 0.8 µM)	relative viability (Tanzisertib + Foretinib; first compound 2.53 µM)	relative viability (Tanzisertib + Foretinib; first compound 8 µM)	relative viability (Tanzisertib + Dasatinib; first compound 0.08 µM)	relative viability (Tanzisertib + Dasatinib; first compound 0.253 µM)	relative viability (Tanzisertib + Dasatinib; first compound 0.8 µM)	relative viability (Tanzisertib + Dasatinib; first compound 2.53 µM)	relative viability (Tanzisertib + Dasatinib; first compound 8 µM)	relative viability (Tanzisertib + Navitoclax; first compound 0.08 µM)	relative viability (Tanzisertib + Navitoclax; first compound 0.253 µM)	relative viability (Tanzisertib + Navitoclax; first compound 0.8 µM)	relative viability (Tanzisertib + Navitoclax; first compound 2.53 µM)	relative viability (Tanzisertib + Navitoclax; first compound 8 µM)
HCC-78	0.965	0.901	0.915	0.882	0.934	0.545	0.614	0.584	0.583	0.585	0.469	0.54	0.3	0.325	0.255	0.705	0.741	0.766	0.801	0.673
HCC-366		0.201	0.152	0.204	0.328	0.917	0.918	0.922	0.975	0.917	0.81	0.606	0.629	0.62	0.542	1.16	1.02	1.08	1.13	1.01
HCC-827	0.266	0.229	0.25	0.251	0.175	1.13	1.1	1.07	0.814	0.389	0.457	0.26	0.35	0.201	0.105	0.961	1.01	1.11	1	0.742
HOP-62	0.301	0.346	0.31	0.315	0.353	0.99	1.07	0.986	1.22	1.32	0.733	0.654	0.659	0.644	0.569	0.978	0.994	0.819	1.11	1.26
IA-LM						1.02	1.28	1.04	1.28	1.09						0.814	0.622	0.691	0.963	1.1
LC-2-ad	0.282	0.292	0.275	0.272	0.294	0.924	0.913	0.908	0.877	0.884	0.789	0.642	0.686	0.684	0.403	0.549	0.441	0.548	0.534	0.507
LCLC-97TM1	0.172	0.164	0.146	0.169	0.173	0.928	0.945	0.89	0.854	0.946	0.953	0.878	0.831	0.786	0.901		0.53	0.38	0.394	0.462
LCLC-103H	0.521	0.472	0.451	0.432	0.468	0.79	0.784	0.806	0.71	0.765	0.496	0.466	0.427	0.402	0.468					
NCI-H358	0.165	0.176	0.171	0.163	0.179	0.774	0.589	0.694	0.73	0.442	0.185	0.159	0.164	0.151	0.131					
